Assay results: patent US20240376097A1, “BCL-2 Inhibitor” (BeiGene Ltd., priority 2020, published 2024)

Tests used:
[1] = system: BCL-2 G101V knock-in cell line H96 (derive from RS4;11); test: Bcl 2-G101V Knock-In RS4;11 Cell Proliferation Assay; assay type: cell-based; conditions: Homo sapiens, RS4;11 Bcl-2 G101V knock-in clone H96, 48 hrs, CellTiter-GLO, read-out: Cellular proliferation assay (IC50, nM) RS4
In short: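 CellTiter-Glo luminescence after 48 h, 37 °C compound treatment (10 concentrations, maximum 1 μM or 10 μM) gave mean IC50 values. Cells were 50,000 per well of H96, a BCL2-G101V knock-in single clone derived from RS4;11 by Cas9 editing.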

[2] = system: RS4;11 (BCL-2 dependent acute lymphoblastic leukemia cell line); test: RS4;11 Cell Proliferation Assay; assay type: cell-based; conditions: Homo sapiens, RS4-11, RS4;11 cells, read-out: Cellular proliferation assay (IC50, nM) RS4
In short: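 Viability measured via CellTiter-Glo luminescence after a 48 h, 37 °C exposure to compounds (10 points, highest 1 μM). Seeding was 50,000 RS4;11 cells per well in 10% FBS RPMI-1640; IC50 given as mean.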

[3] = system: recombinant human Bcl-2-G101V protein; test: Bcl-2-G101V TR-FRET Assay; assay type: binding; conditions: ratio of biochemical IC50 Bcl-2 G101V / Bcl-2 WT
In short: (§1)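 Compounds were titrated at increasing concentrations against the Bcl-2-G101V–ligand interaction. TR-FRET signals were then read (ex 337 nm; em 490/520 nm). Percent inhibition was derived from the 490-to-520 nm ratio, and IC50 from a four-parameter logistic equation.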

[4] = target: recombinant human Bcl-2-G101V protein (Homo sapiens (Human), UniProt P10415, G101V); test: Bcl-2-G101V TR-FRET Assay; assay type: binding; conditions: Bcl-2 G101V mutant, TR-FRET; read-out: Biochemical assay (IC50, nM) Bcl-2 G101V
In short: as §1

[5] = target: Recombinant human Bcl-2 protein (Homo sapiens (Human), UniProt P10415); test: Bcl-2 TR-FRET Assay; assay type: binding; conditions: Bcl-2 wild type, TR-FRET; read-out: Biochemical assay (IC50, nM) Bcl-2 WT
In short: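 Displacement of FITC-labelled Bak peptide (0.5 nM) from 0.05 nM human Bcl-2, detected by TR-FRET with Tb-cryptate anti-6His antibody after 1 h at room temperature. Compounds, 10-point series, preincubated 0.5 h with protein in 20 mM potassium phosphate pH 7.5, 50 mM NaCl. IC50s fitted by four-parameter logistic.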

| Compound | IC50 [1] | IC50 [2] | Ratio of Bcl-2 G101V/WT [3] | IC50 [4] | IC50 [5] |
| --- | --- | --- | --- | --- | --- |
| CC(C)c1ccccc1C1CN(Cc2ccc(C3CC3)cc2)CCN1C1CC2(CCN(c3ccc(C(=O)NS(=O)(=O)c4ccc(NC[C@H]5CC[C@](C)(O)CC5)c([N+](=O)[O-])c4)c(Oc4cnc5[nH]cc(F)c5c4)c3)CC2)C1 (stereo partly shown) [Example 160, 4-(2-(4-(4-cyclopropylbenzyl)-2-(2-isopropylphenyl)piperazin-1-yl)-7-azaspiro[3.5]nonan-7-yl)-2-((3-fluoro-1H-pyrrolo[2,3-b]pyridin-5-yl)oxy)-N-((4-((((1r,4r)-4-hydroxy-4-methylcyclohexyl)methyl)amino)-3-nitrophenyl)sulfonyl) benzamide] | 2.87 nM | 0.564 nM | 5 | 6 nM | 1.2 nM |
| COc1cc(CN2CCN(C3CC4(CCN(c5ccc(C(=O)NS(=O)(=O)c6ccc(NC[C@H]7CC[C@](C)(O)CC7)c([N+](=O)[O-])c6)c(Oc6cnc7[nH]cc(F)c7c6)c5)CC4)C3)C(c3ccccc3C(C)C)C2)ccc1C1CC1 (stereo partly shown) [Example 161, 4-(2-(4-(4-cyclopropyl-3-methoxybenzyl)-2-(2-isopropylphenyl)piperazin-1-yl)-7-azaspiro[3.5]nonan-7-yl)-2-((3-fluoro-1H-pyrrolo[2,3-b]pyridin-5-yl)oxy)-N-((4-((((1r,4r)-4-hydroxy-4-methylcyclohexyl)methyl)amino)-3-nitrophenyl)sulfonyl) benzamide] | 1.22 nM | 0.46 nM | 6.8 | 3.9 nM | 0.42 nM |
| COc1ccc(CN2CCN(C3CC4(CCN(c5ccc(C(=O)NS(=O)(=O)c6ccc(NC[C@H]7CC[C@](C)(O)CC7)c([N+](=O)[O-])c6)c(Oc6cnc7[nH]ccc7c6)c5)CC4)C3)C(c3ccccc3C(C)C)C2)cc1OC(F)(F)F (stereo partly shown) [Example 163, 2-((1H-pyrrolo[2,3-b]pyridin-5-yl)oxy)-N-((4-((((1r,4r)-4-hydroxy-4-methylcyclohexyl)methyl)amino)-3-nitrophenyl)sulfonyl)-4-(2-(2-(2-isopropylphenyl)-4-(4-methoxy-3-(trifluoromethoxy)benzyl)piperazin-1-yl)-7-azaspiro[3.5]nonan-7-yl)benzamide] | 9.2 nM | 1.08 nM | 4.3 | 5.5 nM | 1.3 nM |
| CC(C)c1ccccc1C1CN(Cc2ccc3c(c2)OC(F)(F)O3)CCN1C1CC2(CCN(c3ccc(C(=O)NS(=O)(=O)c4ccc(NC[C@H]5CC[C@](C)(O)CC5)c([N+](=O)[O-])c4)c(Oc4cnc5[nH]ccc5c4)c3)CC2)C1 (stereo partly shown) [Example 168, 2-((1H-pyrrolo[2,3-b]pyridin-5-yl)oxy)-4-(2-(4-((2,2-difluorobenzo[d] [1,3]dioxol-5-yl)methyl)-2-(2-isopropylphenyl)piperazin-1-yl)-7-azaspiro[3.5]nonan-7-yl)-N-((4-((((1r,4r)-4-hydroxy-4-methylcyclohexyl)methyl)amino)-3-nitrophenyl)sulfonyl)benzamide] | 1.68 nM | 0.48 nM | 5.9 | 4.6 nM | 0.79 nM |
| COc1ccc(CN2CCN(C3CC4(CCN(c5ccc(C(=O)NS(=O)(=O)c6ccc(NC[C@H]7CC[C@](C)(O)CC7)c([N+](=O)[O-])c6)c(Oc6cnc7[nH]ccc7c6)c5)CC4)C3)C(c3ccccc3C(C)C)C2)cc1OC(F)F (stereo partly shown) [Example 169, 2-((1H-pyrrolo[2,3-b]pyridin-5-yl)oxy)-4-(2-(4-(3-(difluoromethoxy)-4-methoxybenzyl)-2-(2-isopropylphenyl)piperazin-1-yl)-7-azaspiro[3.5]nonan-7-yl)-N-((4-((((1r,4r)-4-hydroxy-4-methylcyclohexyl)methyl)amino)-3-nitrophenyl)sulfonyl)benzamide] | 1.5 nM | 0.49 nM | 3.9 | 2.4 nM | 0.62 nM |
| CC(C)c1ccccc1C1CN(Cc2ccc(OC3CC3)cc2)CCN1C1CC2(CCN(c3ccc(C(=O)NS(=O)(=O)c4ccc(NC[C@H]5CC[C@](C)(O)CC5)c([N+](=O)[O-])c4)c(Oc4cnc5[nH]ccc5c4)c3)CC2)C1 (stereo partly shown) [Example 172, 2-((1H-pyrrolo[2,3-b]pyridin-5-yl)oxy)-4-(2-(4-(4-cyclopropoxybenzyl)-2-(2-isopropylphenyl)piperazin-1-yl)-7-azaspiro[3.5]nonan-7-yl)-N-((4-((((1r,4r)-4-hydroxy-4-methylcyclohexyl)methyl)amino)-3-nitrophenyl)sulfonyl)benzamide] | 1.64 nM | 0.43 nM | 5.5 | 1.9 nM | 0.35 nM |
| COc1ccc(CN2CCN(C3CC4(C3)CN(c3ccc(C(=O)NS(=O)(=O)c5ccc(NCC6CCOCC6)c([N+](=O)[O-])c5)c(Oc5cnc6[nH]ccc6c5)c3)C4)[C@H](c3ccccc3C(C)C)C2)cc1OC [Example 173, (R)-2-((1H-pyrrolo[2,3-b]pyridin-5-yl)oxy)-4-(6-(4-(3,4-dimethoxybenzyl)-2-(2-isopropylphenyl)piperazin-1-yl)-2-azaspiro[3.3]heptan-2-yl)-N-((3-nitro-4-(((tetrahydro-2H-pyran-4-yl)methyl)amino)phenyl)sulfonyl) benzamide] | 0.6 nM | 0.18 nM | 6.5 | 0.11 nM | 0.017 nM |
| [2H]C([2H])([2H])Oc1ccc(CN2CCN(C3CC4(CCN(c5ccc(C(=O)NS(=O)(=O)c6ccc(NC[C@H]7CC[C@](C)(O)CC7)c([N+](=O)[O-])c6)c(Oc6cnc7[nH]ccc7c6)c5)CC4)C3)C(c3ccccc3C(C)C)C2)cc1OC([2H])([2H])[2H] (stereo partly shown) [Example 175, 2-((1H-pyrrolo[2,3-b]pyridin-5-yl)oxy)-4-(2-(4-(3,4-bis(methoxy-d3)benzyl)-2-(2-isopropylphenyl)piperazin-1-yl)-7-azaspiro[3.5]nonan-7-yl)-N-((4-((((1r,4r)-4-hydroxy-4-methylcyclohexyl)methyl)amino)-3-nitrophenyl)sulfonyl)benzamide] | 1 nM | 0.33 nM | 7.0 | 0.29 nM | 0.041 nM |
| CC(C)c1ccccc1C1CN(Cc2cccc(OC3CC3)c2)CCN1C1CC2(CCN(c3ccc(C(=O)NS(=O)(=O)c4ccc(NC[C@H]5CC[C@](C)(O)CC5)c([N+](=O)[O-])c4)c(Oc4cnc5[nH]ccc5c4)c3)CC2)C1 (stereo partly shown) [Example 178, 2-((1H-pyrrolo[2,3-b]pyridin-5-yl)oxy)-4-(2-(4-(3-cyclopropoxybenzyl)-2-(2-isopropylphenyl)piperazin-1-yl)-7-azaspiro[3.5]nonan-7-yl)-N-((4-((((1r,4r)-4-hydroxy-4-methylcyclohexyl)methyl)amino)-3-nitrophenyl)sulfonyl)benzamide] | 4.87 nM | 0.64 nM | 2.9 | 1.5 nM | 0.52 nM |
| COc1ccc(CN2CCN(C3CC4(C3)CN(c3ccc(C(=O)NS(=O)(=O)c5ccc(NCC6CCOCC6)c([N+](=O)[O-])c5)c(Oc5cnc6[nH]cc(F)c6c5)c3)C4)[C@H](c3ccccc3C(C)C)C2)cc1 [Example 183, (R)-2-((3-fluoro-1H-pyrrolo[2,3-b]pyridin-5-yl)oxy)-4-(6-(2-(2-isopropylphenyl)-4-(4-methoxybenzyl)piperazin-1-yl)-2-azaspiro[3.3]heptan-2-yl)-N-((3-nitro-4-(((tetrahydro-2H-pyran-4-yl)methyl)amino)phenyl)sulfonyl) benzamide] | 0.52 nM | 0.1 nM | 1.8 | 0.18 nM | 0.096 nM |
| COc1ccc(CN2CCN(C3CC4(CCN(c5ccc(C(=O)NS(=O)(=O)c6ccc(NC[C@H]7CC[C@](C)(O)CC7)c([N+](=O)[O-])c6)c(Oc6cnc7[nH]ccc7c6)c5)CC4)C3)C(c3ccccc3C(C)C)C2)cc1OC1CC1 (stereo partly shown) [Example 186, 2-((1H-pyrrolo[2,3-b]pyridin-5-yl)oxy)-4-(2-(4-(3-cyclopropoxy-4-methoxybenzyl)-2-(2-isopropylphenyl)piperazin-1-yl)-7-azaspiro[3.5]nonan-7-yl)-N-((4-((((1r,4r)-4-hydroxy-4-methylcyclohexyl)methyl)amino)-3-nitrophenyl)sulfonyl)benzamide] | 2.5 nM | 0.53 nM | 4.2 | 0.64 nM | 0.15 nM |
